Measurements published in publication PMC12040169 (PLOS Biology, 2025).

Assay: in vitro
Conditions: human, hela cells, % viability

| SMILES | viability at 28.5 h, 10 µM [%] | viability at 28.5 h, 10 µM (bulk resorufin, single well) [%] |
| --- | --- | --- |
| COc1ccc(-c2nnc(SCC(=O)NN)n2-c2ccccc2)cc1OC [CBK262264] | 112 |  |
| O=c1sn(C2CCCCC2)c(=O)n1Cc1ccc(F)cc1 [CBK113604] | 90.8 |  |
| O=C(NCc1ccc(-c2csnn2)cc1)c1cccc(C(F)(F)F)c1 [CBK149293] | 87.2 |  |
| Cc1ccc(C2N(Cc3ccccc3)CCN2Cc2ccccc2)o1 [CBK260883] | 98.3 |  |
| Cc1cc2c(N3CCCC3)nc(N3CCCC3)nc2n1C [CBK016633C] | 101 |  |
| CCc1cc(Br)ccc1S(=O)(=O)NCCCC(=O)OC [CBK044788] | 88.2 |  |
| COc1ccc(-n2c(=O)[nH]cc(C(=O)Nc3cccc(Cl)c3C)c2=O)cc1 [CBK287549] | 118 |  |
| Cc1ccc(NC(=O)Cn2cnc3sc(C(=O)Nc4ccccc4)c(C)c3c2=O)cc1 [CBK265931] | 101 |  |
| COc1ccc(CCC(=O)Nc2ncn(Cc3cccc(C)c3)n2)cc1 [CBK288227] | 91.7 |  |
| CCNc1nc2ccccn2c(=O)c1C=C1SC(=S)N(CCCC(=O)O)C1=O [CBK296757] | 87.9 |  |
| COCCCn1c(=O)[nH]c2ncc(-c3ccco3)nc21 [CBK064449] | 99.2 |  |
| O=C(NC(=S)Nc1cccc(Cl)c1)c1cncc(Br)c1 [CBK264618] | 94.1 |  |
| CC(C)(C)C(=O)CSc1nnc(-c2ccccc2)n1Cc1ccccc1 [CBK264960] | 108 |  |
| CCCOc1nccnc1N1CCNCC1 [CBK001839G] | 82.4 |  |
| CC1CCN(Cc2csc(NC(=O)CCn3c(-c4cccs4)n[nH]c3=S)n2)CC1 [CBK297892] | 92.2 |  |
| O=C(C(CO)c1ccccc1)N1CCC2(CCN(CCCCOc3ccccc3)C2)C1 (centres unmarked) [CBK161722] | 90 |  |
| CCOc1ccc(-c2ncncc2-c2ccccc2)c(O)c1 [CBK288111] | 86.4 |  |
| Cc1ccc(-n2ncc3c(=O)n(CC(=O)NC4CCCCC4)cnc32)cc1 [CBK287536] | 78.1 |  |
| O=C(O)Cn1cc(C(=O)c2cccs2)c2ccccc21 [CBK287110] |  | 91.9 |
| Cc1ccc(-c2csc3ncnc(NCCCc4n[nH]c(N)c4C#N)c23)cc1 [CBK297100] | 98.1 |  |
| C[C@@H]1C[C@H](C)CN(C(C(=O)O)c2c[nH]c3ccccc23)C1 (some centres unmarked) [CBK286868] | 94.3 |  |
| O=C(c1ccncc1)N(c1ccc2oc3c(c2c1)CCCC3)S(=O)(=O)c1cccc([N+](=O)[O-])c1 [CBK265705] | 106 |  |

| SMILES | viability at 28.5 h, 10 µM [%] | viability at 28.5 h, 10 µM (bulk resorufin, single well) [%] |
| --- | --- | --- |
| O=C(Nc1cccc(C(=O)O)c1)Nc1ccc(Cl)c(Cl)c1 [CBK155455G] | 88.7 |  |
| CN(C)c1ccc([N+](=O)[O-])cc1/C=N/NC(=O)CCc1ccccc1O [CBK263257] | 86.1 |  |
| CC(NC(=O)C1C2C=CC(C2)C1C(=O)O)c1ccccc1 (centres unmarked) [CBK265384] | 109 |  |
| CNS(=O)(=O)c1ccc(C)c(NC(C)=O)c1C [CBK034426] | 88.5 |  |
| Cn1nc(C2CCN(C(=O)c3ccccc3F)CC2)c2cccnc21 [CBK285019] | 106 |  |
| CCOC(=O)N1CCC(NS(=O)(=O)/C=C/c2ccccc2)CC1 [CBK045458] | 107 |  |
| O=C(O)CCn1cc(Br)c([N+](=O)[O-])n1 [CBK286916] | 90 |  |
| O=C(Cn1c(NCCO)nc2ccccc21)c1ccc([N+](=O)[O-])cc1 [CBK262139B] | 100 |  |
| Cc1ccc(C(=O)NCCC(=O)Nc2ccccn2)cc1NC(=O)c1ccco1 [CBK298328] | 92.2 |  |
| CCC(=O)NCc1ccc(-c2cc(CN(C)C)n(C)n2)cc1 [CBK281668] | 103 |  |
| COc1ccc(NC(=O)c2c(C)[nH]c(=O)[nH]c2=S)cc1OC [CBK115517] | 90.4 |  |
| Cc1nn(CC(=O)N2CCCC2)c(=O)c2cc3sccc3n12 [CBK284024] | 95.2 |  |
| Cc1nc(-c2ccccc2)ccc1C(=O)Nc1nc(CC(N)=O)cs1 [CBK295195] | 96.8 |  |
| O=C(CSc1ncnc2ccccc12)NCc1ccco1 [CBK287509] | 98.8 |  |
| Cc1ccc2cc(C3CC(c4ccccc4)=NN3C(=O)CCC(=O)O)c(=O)[nH]c2c1 (centres unmarked) [CBK296127] | 109 |  |
| O=C1CC(N2CCC(c3nc4ccccc4o3)CC2)C(=O)N1Cc1cccs1 (centres unmarked) [CBK268735] | 104 |  |
| c1ccc2c(-c3cn4ccnc4c(N4CCOCC4)n3)cccc2c1 [CBK037387] | 91.6 |  |
| O=[N+]([O-])c1ccccc1S(=O)(=O)N1CCN(c2ccccc2)CC1 [CBK261755] | 85.8 |  |
| CCCN1CC(NS(=O)(=O)c2ccnn2CCC)CC1=O (centres unmarked) [CBK306598] | 92.9 |  |
| O=C(C1CC1)N1C[C@H]2CCCN(S(=O)(=O)c3cccs3)[C@H]2C1 [CBK282255] | 105 |  |
| CCCC(NC(=O)c1cccc(-n2cnnc2)c1)c1cccs1 (centres unmarked) [CBK282745] | 102 |  |
| O=C(O)c1ccccc1C(=O)N1CCC2(CC1)OCc1cc(-c3ccco3)ccc1O2 [CBK060824] |  | 93.6 |
